Key:
[1] = test system: six V600E BRAF melanoma cell lines; assay: Screening of recombinant RTK ligands for ability to confer resistance to BRAFi (PLX4720) or MEKi (PD184352) (Table 4); format: cell-based, human; design: ability of recombinant RTK ligand to confer resistance / ability of recombinant RTK ligand to confer resistance (screening value): scale not given here
How it was run: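 Resistance to BRAFi (PLX4720) or MEKi (PD184352) was tested in six V600E BRAF melanoma lines given one of 22 recombinant RTK ligands. For a subset of RTKs, activation was checked by high-throughput tyrosine kinase phosphorylation profiling and western blot.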

pERK/pAKT = assay: High-throughput western analysis of pERK/pAKT re-activation by RTK ligands under BRAFi/MEKi; format: cell-based, human; conditions: under BRAFi (PLX4720); after 1 hour of cytokine treatment; six V600E BRAF melanoma cell lines
Experimental: FIG. 23B is a western blot showing the activation of AKT (phosphorylated AKT, S473) after 1 hour and 24 hours after treatment with HGF, IGF-1 (IGF), and Insulin (INS) in the presence of BRAFi (PLX4720, 2 μM). FIG. 23C is a western blot showing the effect of HGF (25 ng/mL) on MAPK and PI3K/AKT pathway activation (pRAF1, pMEK, pERK, pAKT and pMET) in melanoma cell lines after 24 hours of treatment with 2 μM BRAFi (PLX4720) or 2 μM MEKi (PD184352).
To understand why, of all the RTKs tested, only HGF could induce such a unique primary resistance phenotype, a high-throughput western analysis was used to test the ability of all 22 RTK ligands to re-activate pERK/pAKT under BRAFi (PLX4720) treatment in six V600E BRAF melanoma cell lines. […] However, whereas the activation of both ERK and AKT by HGF under PLX4720 treatment was long lasting, the activation of either ERK or AKT by the above cytokines was only transient and thus could not confer resistance to the melanoma cell lines.

Substance: PDGF-BB: RTK ligand of PDGFRB
- ability of recombinant RTK ligand to confer resistance ([1]; A2058, PD184352 - 1 uM, ligand 0.4 ng/ml): 1.07
- ability of recombinant RTK ligand to confer resistance ([1]; A2058, PD184352 - 1 uM, ligand 1.6 ng/ml): 0.98
- ability of recombinant RTK ligand to confer resistance ([1]; A2058, PD184352 - 1 uM, ligand 6.25 ng/ml): 1.10
- ability of recombinant RTK ligand to confer resistance ([1]; A2058, PD184352 - 1 uM, ligand 25 ng/ml): 1.09
- ability of recombinant RTK ligand to confer resistance ([1]; A2058, PD184352 - 1 uM, ligand 100 ng/ml): 1.02
- ability of recombinant RTK ligand to confer resistance ([1]; A2058, PLX4720 - 2 uM, ligand 0.4 ng/ml): 1.07
- ability of recombinant RTK ligand to confer resistance ([1]; A2058, PLX4720 - 2 uM, ligand 1.6 ng/ml): 0.98
- ability of recombinant RTK ligand to confer resistance ([1]; A2058, PLX4720 - 2 uM, ligand 6.25 ng/ml): 1.07
- ability of recombinant RTK ligand to confer resistance ([1]; A2058, PLX4720 - 2 uM, ligand 25 ng/ml): 1.12
- ability of recombinant RTK ligand to confer resistance ([1]; A2058, PLX4720 - 2 uM, ligand 100 ng/ml): 1.07
- ability of recombinant RTK ligand to confer resistance ([1]; C32, PD184352 - 1 uM, ligand 0.4 ng/ml): 1.06
- ability of recombinant RTK ligand to confer resistance ([1]; C32, PD184352 - 1 uM, ligand 1.6 ng/ml): 0.97
- ability of recombinant RTK ligand to confer resistance ([1]; C32, PD184352 - 1 uM, ligand 6.25 ng/ml): 1.08
- ability of recombinant RTK ligand to confer resistance ([1]; C32, PD184352 - 1 uM, ligand 25 ng/ml): 1.10
- ability of recombinant RTK ligand to confer resistance ([1]; C32, PD184352 - 1 uM, ligand 100 ng/ml): 0.96
- ability of recombinant RTK ligand to confer resistance ([1]; C32, PLX4720 - 2 uM, ligand 0.4 ng/ml): 0.96
- ability of recombinant RTK ligand to confer resistance ([1]; C32, PLX4720 - 2 uM, ligand 1.6 ng/ml): 0.97
- ability of recombinant RTK ligand to confer resistance ([1]; C32, PLX4720 - 2 uM, ligand 6.25 ng/ml): 1.04
- ability of recombinant RTK ligand to confer resistance ([1]; C32, PLX4720 - 2 uM, ligand 25 ng/ml): 0.97
- ability of recombinant RTK ligand to confer resistance ([1]; C32, PLX4720 - 2 uM, ligand 100 ng/ml): 0.89
- ability of recombinant RTK ligand to confer resistance ([1]; Colo 829, PD184352 - 1 uM, ligand 0.4 ng/ml): 1.04
- ability of recombinant RTK ligand to confer resistance ([1]; Colo 829, PD184352 - 1 uM, ligand 1.6 ng/ml): 1.06
- ability of recombinant RTK ligand to confer resistance ([1]; Colo 829, PD184352 - 1 uM, ligand 6.25 ng/ml): 1.10
- ability of recombinant RTK ligand to confer resistance ([1]; Colo 829, PD184352 - 1 uM, ligand 25 ng/ml): 1.09
- ability of recombinant RTK ligand to confer resistance ([1]; Colo 829, PD184352 - 1 uM, ligand 100 ng/ml): 0.98
- ability of recombinant RTK ligand to confer resistance ([1]; Colo 829, PLX4720 - 2 uM, ligand 0.4 ng/ml): 1.01
- ability of recombinant RTK ligand to confer resistance ([1]; Colo 829, PLX4720 - 2 uM, ligand 1.6 ng/ml): 1.03
- ability of recombinant RTK ligand to confer resistance ([1]; Colo 829, PLX4720 - 2 uM, ligand 6.25 ng/ml): 1.06
- ability of recombinant RTK ligand to confer resistance ([1]; Colo 829, PLX4720 - 2 uM, ligand 25 ng/ml): 1.06
- ability of recombinant RTK ligand to confer resistance ([1]; Colo 829, PLX4720 - 2 uM, ligand 100 ng/ml): 1.01
- ability of recombinant RTK ligand to confer resistance ([1]; G-361, PD184352 - 1 uM, ligand 0.4 ng/ml): 1.00
- ability of recombinant RTK ligand to confer resistance ([1]; G-361, PD184352 - 1 uM, ligand 1.6 ng/ml): 0.89
- ability of recombinant RTK ligand to confer resistance ([1]; G-361, PD184352 - 1 uM, ligand 6.25 ng/ml): 0.99
- ability of recombinant RTK ligand to confer resistance ([1]; G-361, PD184352 - 1 uM, ligand 25 ng/ml): 0.98
- ability of recombinant RTK ligand to confer resistance ([1]; G-361, PD184352 - 1 uM, ligand 100 ng/ml): 0.96
- ability of recombinant RTK ligand to confer resistance ([1]; G-361, PLX4720 - 2 uM, ligand 0.4 ng/ml): 0.93
- ability of recombinant RTK ligand to confer resistance ([1]; G-361, PLX4720 - 2 uM, ligand 1.6 ng/ml): 0.90
- ability of recombinant RTK ligand to confer resistance ([1]; G-361, PLX4720 - 2 uM, ligand 6.25 ng/ml): 0.98
- ability of recombinant RTK ligand to confer resistance ([1]; G-361, PLX4720 - 2 uM, ligand 25 ng/ml): 1.00
- ability of recombinant RTK ligand to confer resistance ([1]; G-361, PLX4720 - 2 uM, ligand 100 ng/ml): 1.00
- ability of recombinant RTK ligand to confer resistance ([1]; SK-MEL-5, PD184352 - 1 uM, ligand 0.4 ng/ml): 1.03
- ability of recombinant RTK ligand to confer resistance ([1]; SK-MEL-5, PD184352 - 1 uM, ligand 1.6 ng/ml): 1.08
- ability of recombinant RTK ligand to confer resistance ([1]; SK-MEL-5, PD184352 - 1 uM, ligand 6.25 ng/ml): 1.04
- ability of recombinant RTK ligand to confer resistance ([1]; SK-MEL-5, PD184352 - 1 uM, ligand 25 ng/ml): 1.15
- ability of recombinant RTK ligand to confer resistance ([1]; SK-MEL-5, PD184352 - 1 uM, ligand 100 ng/ml): 1.16
- ability of recombinant RTK ligand to confer resistance ([1]; SK-MEL-5, PLX4720 - 2 uM, ligand 0.4 ng/ml): 0.87
- ability of recombinant RTK ligand to confer resistance ([1]; SK-MEL-5, PLX4720 - 2 uM, ligand 1.6 ng/ml): 0.98
- ability of recombinant RTK ligand to confer resistance ([1]; SK-MEL-5, PLX4720 - 2 uM, ligand 6.25 ng/ml): 1.02
- ability of recombinant RTK ligand to confer resistance ([1]; SK-MEL-5, PLX4720 - 2 uM, ligand 25 ng/ml): 1.16
- ability of recombinant RTK ligand to confer resistance ([1]; SK-MEL-5, PLX4720 - 2 uM, ligand 100 ng/ml): 1.31
- ability of recombinant RTK ligand to confer resistance ([1]; SK-MEL-28, PD184352 - 1 uM, ligand 0.4 ng/ml): 1.10
- ability of recombinant RTK ligand to confer resistance ([1]; SK-MEL-28, PD184352 - 1 uM, ligand 1.6 ng/ml): 1.02
- ability of recombinant RTK ligand to confer resistance ([1]; SK-MEL-28, PD184352 - 1 uM, ligand 6.25 ng/ml): 1.05
- ability of recombinant RTK ligand to confer resistance ([1]; SK-MEL-28, PD184352 - 1 uM, ligand 25 ng/ml): 0.99
- ability of recombinant RTK ligand to confer resistance ([1]; SK-MEL-28, PD184352 - 1 uM, ligand 100 ng/ml): 1.03
- ability of recombinant RTK ligand to confer resistance ([1]; SK-MEL-28, PLX4720 - 2 uM, ligand 0.4 ng/ml): 1.03
- ability of recombinant RTK ligand to confer resistance ([1]; SK-MEL-28, PLX4720 - 2 uM, ligand 1.6 ng/ml): 1.10
- ability of recombinant RTK ligand to confer resistance ([1]; SK-MEL-28, PLX4720 - 2 uM, ligand 6.25 ng/ml): 1.16
- ability of recombinant RTK ligand to confer resistance ([1]; SK-MEL-28, PLX4720 - 2 uM, ligand 25 ng/ml): 10.5
- ability of recombinant RTK ligand to confer resistance ([1]; SK-MEL-28, PLX4720 - 2 uM, ligand 100 ng/ml): 1.13
- ability of RTK ligand to confer primary resistance ([1]; six V600E BRAF melanoma cell lines, BRAFi (PLX4720) or MEKi (PD184352)): not shown to induce primary resistance
- re-activation of pERK/pAKT (pERK/pAKT): reactivate only ERK
